Read-outs that look alike come from different tables or passages of the source.
How the values were obtained:
[1] = test system: human articular chondrocytes; experiment: Radioimmunoassay of cartilaginous proteoglycans (PG) produced in tridimensional culture of human chondrocytes; format: cell-based; settings: for PG in the clusters over 12 days: 0-12 days
Description: The model used for testing the proanthocyanidols, namely the tridimensional culture of human chondrocytes allows chondrorepair to be quantified by the production of matrix substances: type II collagen, proteoglycans, and chondroresorption by the reduction in the levels of prostaglandin E2 and of OH° and O°2 type free radicals produced.
1. Tridimensional culture of human chondrocytes
The technique used has been described in detail (Bassleer et al., 1986).
Briefly, human articular chondrocytes are cultivated in DMEM (Dulbecco's Modification of Eagle's Medium--ICN--Gand, Belgium) with either Ultroser G 1% (GIBCO, Gand, Belgium) or 10% of foetal calf serum (ICN--Gand--Belgium), and 50 μg of ascorbic acid/ml added to it. The cartilage originates from the apparently normal zone of heads of human femur suffering from arthrosis, immediately after an operation carried out to insert a total hip prosthesis; it can also originate from the head of a healthy femur, but which has undergone a traumatism and has had to be replaced. This cartilage is then digested by clostridial collagenase 1 mg/ml (Boehringer-Mannheim, Germany) in a buffer (NaCl 120 mM, CaCl2 1 mM, KCl 5 mM, KH2 PO4 1 mM, NaHCO3 25 mM, glucose 2 mM and Hepes 30 mM, pH 7.4) for 24 hours. After 6 successive washings and centrifugations, the chondrocytes, isolated from their matrix, are cultured in flasks (10^6 cells/2 ml of culture medium) placed on a gyrator (10 rpm). The cultures are kept at 37° C. in an atmosphere of air 95%-CO2 5% (Bassleer et al., 1986). Cultivated under these conditions, after 4 to 5 days the chondrocytes form a tridimensional cluster in each flask. These clusters, which at first have a flocculent appearance, then tend to condense during the culture. After two weeks, their diameter is, in general, from 1 to 2 mm.
The fresh weight of the clusters increases with the duration of the culture, above all during the few first days.
2. Radioimmunoassay of cartilaginous proteoglycans (PG)
The PGs are measured with a radioimmunoassay (RIA) which is specific and sensitive to human cartilaginous PGs (Gysen et al. 1984). The PGs were extracted from human cartilage, according to the methods described by Roughley et al., (1981) and by Bayliss and Venn (1980). The antiserum against the cartilaginous PGs was obtained from the rabbit according to the technique of Vaitukaitis et al. (1971). The radioimmunoassay is carried out in a 0.4 ml volume consisting of 0.1 ml of tracer solution (15000 to 20000 cpm ^125 I-PG, labelled by the chloramine T method (Greenwood, 1973). 0.1 ml of anti-PG antiserum diluted to 1/5000 in phosphate-buffered saline (PBS-50 mM PO4, 150 mM NaCl ), containing BSA (5 g/l bovine serum albumin and 6.7 mM sodium azide) (incubation buffer) and 0.2 ml of several dilutions of the culture medium or of the cluster extract or also of the antigen (0.5 -500 ng/tube).
After four days at 4° C., the free PGs* (radioactive PGs) are separated from the PG*-antibody complexes by double precipitation (Franchimont et al., 1983).
The sensitivity of the assay is 0.6 ng/tube. The accuracy of measurement is of the order of 4%. The coefficients of the intra- and inter assay variation are less than 10% and 20% respectively.
The antibodies are directed against the antigenic determinants of the central protein of PG. There is a complete crossed reaction with human PGs of cartilage from the ribs, vertebral disks and trachea, even with PGs extracted from veins or arteries. There is no cross reaction with glycosaminoglycans or with PGs extracted from foetal tissues or the small PGs from bone.
The PGs are measured directly in the culture medium. As for the chondrocyte clusters, they are washed 3 times in a phosphate-buffered saline (PBS-50 mM PO4, 150 mM NaCl pH 7.4) containing protease inhibitors (Oegema et al., 1975:100 mM 6-aminohexanoic acid, 10 mM EDTA, 50 mM benzamidine hydrochloride, 5.10^-8 M trypsin inhibitor, 6.7 mM sodium azide and 200 U/ml superoxide dismutase). […]

[2] = Production of OH° hydroxyl radicals (gamma irradiation, KMB substrate, ethylene by gas chromatography); format: biochemical; settings: for % inhibition of the production of hydroxyl radicals: Substrate: KMB, relative to the controls
Experimental: 8. Production of OH° hydroxyl radicals
The products are dissolved in 10 ml flasks at the required concentration in phosphate buffer: 6.6.10^-2 M, pH 7.4 in the presence of alpha keto methiolbutyric acid (10^-3 M: KMB). After the flasks have been hermetically sealed, the samples are irradiated with gamma rays provided by a ^137 Cs source.
The OH° radicals produced by the gamma radiation react with the KMB to produce the ethylene detected by a gas chromatograph. The height of the ethylene peak is proportional to the quantity of free radicals formed in the medium (Weis et al., 1978).

[3] = Antilipoperoxidizing activity (gamma irradiation, linoleic acid substrate, pentane); format: biochemical; settings: for % inhibition of pentane release from linoleic acid (lipid peroxidation): Substrate: Linoleic acid, relative to the controls
Experimental: 9. Antilipoperoxidizing activity
Similar to the preceding anti-radical method but where the KMB is replaced by linoleic acid (C18: 2), the gamma radiation releases pentane which is analyzed. The height of the pentane peak is proportional to the quantity free of radicals formed in the medium.

## Oc1cc(O)c2c(c1)O[C@H](c1cc(O)c(O)c(O)c1)[C@@H](O)[C@@H]2c1c(O)cc(O)c2c1O[C@H](c1cc(O)c(O)c(O)c1)[C@H](O)C2 [Substance Ia, GC-(4 alpha→8) EGC]
[1]; 1% Ultroser G, 1 μg/ml
  PG in the clusters over 12 days: 912 ± 83.6 ng/μg DNA
[1]; 1% Ultroser G, 10 μg/ml
  PG in the clusters over 12 days: 1411 ± 153 ng/μg DNA
[1]; 1% Ultroser G, 100 μg/ml
  PG in the clusters over 12 days: 2105 ± 42 ng/μg DNA
[1]; 1% Ultroser G, culture time 0-4 days, 1 μg/ml
  PGs released in the culture medium: 14.2 ± 1.6 μg/μg DNA/96 h
[1]; 1% Ultroser G, culture time 0-4 days, 10 μg/ml
  PGs released in the culture medium: 22.4 ± 0.2 μg/μg DNA/96 h
[1]; 1% Ultroser G, culture time 0-4 days, 100 μg/ml
  PGs released in the culture medium: 28.6 ± 2.85 μg/μg DNA/96 h
[1]; 1% Ultroser G, culture time 4-8 days, 1 μg/ml
  PGs released in the culture medium: 1.74 ± 0.18 μg/μg DNA/96 h
[1]; 1% Ultroser G, culture time 4-8 days, 10 μg/ml
  PGs released in the culture medium: 3.26 ± 0.12 μg/μg DNA/96 h
[1]; 1% Ultroser G, culture time 4-8 days, 100 μg/ml
  PGs released in the culture medium: 3.94 ± 0.1 μg/μg DNA/96 h
[1]; 1% Ultroser G, culture time 8-12 days, 1 μg/ml
  PGs released in the culture medium: 0.44 ± 0.04 μg/μg DNA/96 h
[1]; 1% Ultroser G, culture time 8-12 days, 10 μg/ml
  PGs released in the culture medium: 0.74 ± 0.18 μg/μg DNA/96 h
[1]; 1% Ultroser G, culture time 8-12 days, 100 μg/ml
  PGs released in the culture medium: 0.78 ± 0.02 μg/μg DNA/96 h
[1]; 1% Ultroser G, cumulative, 1 μg/ml
  Proteoglycans released during the 12 days of culture, Abs: 16.4 μg/μg DNA/12 days
[1]; 1% Ultroser G, cumulative, 10 μg/ml
  Proteoglycans released during the 12 days of culture, Abs: 26.4 μg/μg DNA/12 days
[1]; 1% Ultroser G, cumulative, 100 μg/ml
  Proteoglycans released during the 12 days of culture, Abs: 33.3 μg/μg DNA/12 days
[1]; 1% Ultroser G, three concentrations studied
  Concentrations of PG in the clusters, effect in words: significantly stimulated and in a dose-dependent way
[1]; Homo sapiens, Chondrocyte, 288 h, 1% Ultroser G, cumulative, 1 μg/ml, control = 100, read-out: Proteoglycans released during the 12 days of culture, %
  activity at 1 µg/mL: 103%
[1]; Homo sapiens, Chondrocyte, 288 h, 1% Ultroser G, cumulative, 10 μg/ml, control = 100, read-out: Proteoglycans released during the 12 days of culture, %
  activity at 10 µg/mL: 165%
[1]; Homo sapiens, Chondrocyte, 288 h, 1% Ultroser G, cumulative, 100 μg/ml, control = 100, read-out: Proteoglycans released during the 12 days of culture, %
  activity at 100 µg/mL: 208%
[1]; Homo sapiens, Chondrocyte, foetal calf serum, Table 14, 0-4 days, 10 μg/ml, control = 100%, read-out: PG in the culture medium, % of control
  activity at 10 µg/mL: 118%
[1]; Homo sapiens, Chondrocyte, foetal calf serum, Table 14, 0-4 days, 100 μg/ml, control = 100%, read-out: PG in the culture medium, % of control
  activity at 100 µg/mL: 147%
[1]; Homo sapiens, Chondrocyte, foetal calf serum, Table 14, 4-8 days, 10 μg/ml, control = 100%, read-out: PG in the culture medium, % of control
  activity at 10 µg/mL: 119%
[1]; Homo sapiens, Chondrocyte, foetal calf serum, Table 14, 4-8 days, 100 μg/ml, control = 100%, read-out: PG in the culture medium, % of control
  activity at 100 µg/mL: 135%
[1]; Homo sapiens, Chondrocyte, foetal calf serum, Table 15, 0-4 days, 10 μg/ml, control = 100%, read-out: PG in the culture medium, % of control
  activity at 10 µg/mL: 131%
[1]; Homo sapiens, Chondrocyte, foetal calf serum, Table 15, 0-4 days, 100 μg/ml, control = 100%, read-out: PG in the culture medium, % of control
  activity at 100 µg/mL: 166%
[1]; Homo sapiens, Chondrocyte, foetal calf serum, Table 15, 4-8 days, 10 μg/ml, control = 100%, read-out: PG in the culture medium, % of control
  activity at 10 µg/mL: 123%
[1]; Homo sapiens, Chondrocyte, foetal calf serum, Table 15, 4-8 days, 100 μg/ml, control = 100%, read-out: PG in the culture medium, % of control
  activity at 100 µg/mL: 138%
[1]; Homo sapiens, Chondrocyte, foetal calf serum, Table 16, 0-8 days, 10 μg/ml, control = 100%, read-out: PG in the clusters over 8 days, % of control
  activity at 10 µg/mL: 128%
[1]; Homo sapiens, Chondrocyte, foetal calf serum, Table 16, 0-8 days, 100 μg/ml, control = 100%, read-out: PG in the clusters over 8 days, % of control
  activity at 100 µg/mL: 158%
[1]; Homo sapiens, Chondrocyte, foetal calf serum, Table 17, 0-8 days, 10 μg/ml, control = 100%, read-out: PG in the clusters over 8 days, % of control
  activity at 10 µg/mL: 120%
[1]; Homo sapiens, Chondrocyte, foetal calf serum, Table 17, 0-8 days, 100 μg/ml, control = 100%, read-out: PG in the clusters over 8 days, % of control
  activity at 100 µg/mL: 144%
[1]; foetal calf serum, 10 and 100 μg/ml
  PGs in the clusters, effect in words: significantly increased
[1]; foetal calf serum, Table 14, 0-4 days, 10 μg/ml
  PG in the culture medium: 7.7 ± 0.49 μg/μg DNA - 96 H
[1]; foetal calf serum, Table 14, 0-4 days, 100 μg/ml
  PG in the culture medium: 9.5 ± 1.34 μg/μg DNA - 96 H
[1]; foetal calf serum, Table 14, 4-8 days, 10 μg/ml
  PG in the culture medium: 2.37 ± 0.17 μg/μg DNA - 96 H
[1]; foetal calf serum, Table 14, 4-8 days, 100 μg/ml
  PG in the culture medium: 2.69 ± 0.15 μg/μg DNA - 96 H
[1]; foetal calf serum, Table 15, 0-4 days, 10 μg/ml
  PG in the culture medium: 6.9 ± 0.99 μg/μg DNA - 96 H
[1]; foetal calf serum, Table 15, 0-4 days, 100 μg/ml
  PG in the culture medium: 8.8 ± 1.49 μg/μg DNA - 96 H
[1]; foetal calf serum, Table 15, 4-8 days, 10 μg/ml
  PG in the culture medium: 2.1 ± 0.21 μg/μg DNA - 96 H
[1]; foetal calf serum, Table 15, 4-8 days, 100 μg/ml
  PG in the culture medium: 2.4 ± 0.09 μg/μg DNA - 96 H
[1]; foetal calf serum, Table 16, 0-8 days, 10 μg/ml
  PG in the clusters over 8 days: 1004 ± 56 ng/μg DNA
[1]; foetal calf serum, Table 16, 0-8 days, 100 μg/ml
  PG in the clusters over 8 days: 1242 ± 208 ng/μg DNA
[1]; foetal calf serum, Table 17, 0-8 days, 10 μg/ml
  PG in the clusters over 8 days: 688.8 ± 40.65 ng/μg DNA
[1]; foetal calf serum, Table 17, 0-8 days, 100 μg/ml
  PG in the clusters over 8 days: 829.4 ± 9.37 ng/μg DNA
[2]; 10^-3 M
  % inhibition of the production of hydroxyl radicals: 78%
[2]; 10^-4 M
  % inhibition of the production of hydroxyl radicals: 41%
[2]; 10^-5 M
  % inhibition of the production of hydroxyl radicals: 22%
[2]; Table 22
  Production of free radicals from KMB, effect in words: significantly inhibits
[3]; 10^-3 M
  % inhibition of pentane release from linoleic acid (lipid peroxidation): 94%
[3]; 10^-4 M
  % inhibition of pentane release from linoleic acid (lipid peroxidation): 42%
[3]; 10^-5 M
  % inhibition of pentane release from linoleic acid (lipid peroxidation): 0%
[3]; Table 23
  Production of free radicals from linoleic acid, effect in words: significantly inhibits
